{"source": "patent US20240093148A1", "about": "“METHOD FOR DIFFERENTIATING HUMAN INDUCED PLURIPOTENT STEM CELLS INTO OLIGODENDROCYTES, AND KIT AND USE” (ALLIFE MEDICINE (ZHUHAI) LIMITED, priority 2021, published 2024)", "system": "human induced pluripotent stem cells", "assay": "Induction of oligodendrocytes from iPSC in OPC mature culture medium with or without puerarin (immunofluorescence, cell count)", "type": "cell-based", "method": "Cleaned with DPBS three times, 3 minutes per time, and fixed with 4% PFA at room temperature for 40 minutes. Cleaned with DPBS three times, 3 minutes per time. 0.5% TritonX-100, perforation for 15 minutes. 5% BSA+0.15% TritonX-100, blocked at room temperature for 1 hour. Preparation of PBST: DPBS+1% BSA+0.15% TritonX-100. The primary antibody was added, stay overnight at 4 degrees. Recycled the primary antibody solution and cleaned it with PB ST three times for 10 minutes each time. The secondary antibody was added with a ratio of 1:500, stayed overnight at 4 degrees, away from light. Cleaned with PB ST three times for 10 minutes each time. 5 μg/ml DAPI for 2-3 minutes, away from light. Cleaned with DPBS and added 90% glycerol.\nOPC mature medium—containing puerarin: 95% DMEM/F-12 medium, 1% non-essential amino acid, 1% GlutaMAX-I, 0.1 mM 2-mercaptoethanol, 1% N2 supplement, 2% B27 supplement, 10 ng/mL PDGF-AA, 10 ng/mL IGF-1, 5 ng/mL HGF, 10 ng/mL NT3, 60 ng/mL T3, 100 ng/mL Biotin, 1 μM cAMP, 25 μM Puerarin, 25 μg/ml insulin. […]\nOn the 37th day of cultivation, the percentage of oligodendrocytes in all cells was quantitatively counted, as shown in FIG. 3."}
{"smiles": "O=c1c(-c2ccc(O)cc2)coc2c([C@@H]3O[C@H](CO)[C@@H](O)[C@H](O)[C@H]3O)c(O)ccc12", "note": "[puerarin, Puerarin]", "values": [{"measurement": "percentage of oligodendrocytes in all cells", "setting": "day 37 of cultivation, 25 μM puerarin in OPC mature culture medium, control medium without puerarin about 21%", "value": "about 36%"}, {"measurement": "increase of the number of oligodendrocytes", "setting": "later stage of induction of iPSC to oligodendrocytes", "value": 30, "unit": "%"}]}
